# Read-outs that look alike come from different tables or passages of the source.
# What was measured:
# rat duodenum = settings: for inhibition of incorporation of radiolabeled heme into the animals: 4 animals (FIG. 8)
# Excerpt: In this assay, Wistar rats were first anesthetized with pentobarbital. Wistar rats are from a strain originally developed at the Wistar Institute and commonly used all over the world for research. Following anesthesia, a midline incision was made in each of the rats. The duodenum of each animal was isolated between the pylorus and the ligament of Trietz by umbilical tape. The bile duct of each animal was then identified and ligated. Following this, a syringe was passed through the pylorus of each animal, and one ml of radiolabeled heme solution was introduced into the duodenum. The heme solutions used contained either only heme, or additionally included an appropriate concentration of an inhibitor to be evaluated.
# Following introduction of the heme or heme/inhibitor solution, the duodenal loop of each animal was tied off. Heme absorption was allowed to continue for a period of 10 minutes. Following this absorption period, the duodenal loop of each rat was removed and the animal was killed. The rat carcass was counted in a whole body counter to determine the amount of radiolabeled heme isotope absorbed into the body from the duodenum.
# The Wistar rats were divided into three groups of 4 animals each. Group 1 was used as a control group.
# In this experiment, 5 animals were utilized in each of the control and testing groups. The incubation time period was extended to be fifteen minutes. […] The points seen in FIG. 9 represent the measurements obtained individual rats, while the shaded bars represent the mean value for each group of animals.
# K562 cells = system: K562 cells
# Excerpt: In a next set of experiments, K562 cells were used to test toxicity of the porphyrins of the invention. K562 cells are erythroleukemia cells from a cell line derived from a chronic myeloid leukemia patient in blast crisis. K562 cells were selected for this testing based on their ability to grow in suspension. This characteristic renders cell counting more reliable.
# [1] = 50 micromolar in duodenal loop, 15 minutes
# Experimental: Subsequently, cardiac punctures were performed on the rats, and between 0.45 and 1.3 ml of blood were collected from each. The plasma of the blood samples was separated and precipitated overnight with 10% trichloroacetic acid.
# IEC-6 cells [2] = system: IEC-6 cells
# IEC-6 cells [3] = assay: Inhibition of in vitro uptake of radiolabeled iron from heme in IEC-6 cells
# Experimental: In a first assay, confluent monolayers of IEC-6 cells were incubated with radioactive iron-labeled heme. […] In this assay, the heme had been previously solubilized in taurodeoxycholate micelles. Twelve-well tissue culture plates were used with 1 ml of phosphate-buffered saline (or “PBS”) containing Ca, Mg and glucose. Cells were incubated with the heme solution and a designated inhibitor for times indicated at a temperature of 37° C.
# After incubation, the cells were washed with 1 ml of the same buffer at 4° C. three times. The cells were then solubilized by the addition of 1 ml of water and sonicated for 10 minutes in a Branson sonicator. The cells were removed by titration and transferred to 75 ml tubes. Subsequently, the radioactivity of the cells was determined using a gamma counter.
# For an initial screen, each compound was added at a concentration of 800 micromolar, and given a timed uptake period of over 60 minutes. […] The concentration of inhibitor required to get a 50% decrease in heme uptake inhibition counts was then determined.
# [4] = 800 μM
# Experimental: TMP (free base porphyrin) was used at 160 and 800 μM concentrations in the taurodeoxycholate-solubilized heme solution.
# [5] = one of two cell lines (summary)
# [6] = read-out: concentration giving about 50% inhibition of heme iron uptake, titration with increasing amounts of inhibitor, uptake determined after 30 minutes
smiles,measurement,setting,value
"C[n+]1ccc(-c2c3nc(c(-c4cc[n+](C)cc4)c4ccc([n-]4)c(-c4cc[n+](C)cc4)c4nc(c(-c5cc[n+](C)cc5)c5ccc2[n-]5)C=C4)C=C3)cc1.[Cr+3] [Cr-TMP, Cr (III) meso-tetra(N-methyl-4-pyridyl) porphine]",inhibition of incorporation of radiolabeled heme into the animals,"rat duodenum; 50 μM, 10 minutes",almost complete inhibition
same,inhibition of incorporation of radiolabeled heme into the animals,"rat duodenum; 200 μM, 10 minutes",almost complete inhibition
same,in vivo inhibition of heme-iron uptake (conclusion),"rat duodenum; about 50 μM, 15 minutes (FIG. 9)",feasible in vivo
same,growth rate of the cells,K562 cells; 50 micromolar in growth media (FIG. 10),not decreased
same,cell growth at higher concentrations,"K562 cells; concentrations above 50 micromolar, growth slowed, cells remained viable",Some inhibition of cell growth
same,toxicity at a high concentration relative to contemplated therapeutic dosage,K562 cells; [5],no toxicity
same,toxicity after prolonged exposure,K562 cells; two weeks of exposure,No toxicity
same,absorption across the intestinal wall,[1],essentially no absorption
same,"plasma level, bounded by limit of sensitivity of the measurement",[1],< 40 nM
same,difference in plasma absorbance between control and treated groups,[1]; 447 nm,no difference
same,growth rate or extent,"IEC-6 cells [2]; 50 μM, up to 7 days' exposure (FIG. 11)",no decrease in growth rate or extent
same,concentration up to which no toxicity was observed,IEC-6 cells [2]; day 4 (FIG. 12),about 100 μM
same,toxicity at a high concentration relative to contemplated therapeutic dosage,IEC-6 cells [2]; [5],no toxicity
same,concentration range in which active as inhibitor,IEC-6 cells [3],low micromolar range
same,toxicity to the cell monolayer under the inverted microscope,"IEC-6 cells [3]; 800 μM, 60 minutes",No toxicity to the cell monolayer was observed
same,"inhibition of heme iron uptake, timed uptake","IEC-6 cells [3]; 800 μM, over 60 minutes, 37 degrees (FIG. 3)",inhibition to approximately background
same,inhibitory ability compared with the free base porphyrin,IEC-6 cells [3]; metal chelates of TMP,effective to still another order of magnitude
same,IC50,IEC-6 cells [3]; [6],~4 µM
"C[n+]1ccc(-c2c3nc(c(-c4cc[n+](C)cc4)c4ccc([nH]4)c(-c4cc[n+](C)cc4)c4nc(c(-c5cc[n+](C)cc5)c5ccc2[nH]5)C=C4)C=C3)cc1 [TMP, meso-tetra(N-methyl-4-pyridyl) porphine]",variation of inhibition in the group of animals,"rat duodenum; 800 μM, 10 minutes",considerable variation in inhibition
same,inhibition of incorporation of iron from heme into the body of the animal,"rat duodenum; 160 and 800 μM in heme solution, 10 minutes (FIG. 7)",inhibition of iron uptake was observed
same,precipitation in the heme solution,[4],slight precipitate
same,IC50,"IEC-6 cells [3]; read-out: concentration at which heme uptake is inhibited (as seen in FIGS. 2 and 4), summary of Tables 1 and 2",~750 µM
same,IC50,IEC-6 cells [3]; [6],~100 µM
